According to patent US12319655B2, “RAF kinase inhibitors and methods of use thereof” (Deciphera Pharmaceuticals, LLC, priority 2021, dated 2025):

Key:
[1] = target: B-Raf (V600E) (SEQ. ID NO: 4) kinase (Homo sapiens (Human), UniProt P15056, V600E); test: Biochemical Assay for B-Raf (V600E) (1); conditions: Table J, BRAF V600E, assay version (1); read-out: BRAF VE (1) IC50
In short: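 Coupled pyruvate kinase/lactate dehydrogenase assay: 0.03 nM B-Raf V600E, 30.1 nM MEK, 1 mM ATP, pH 7.5 Tris/MgCl2 buffer, 1% DMSO. NADH oxidation followed at 340 nm for 6 h at 30 °C; rate from 3–4 h converted to percent inhibition, IC50 by four-parameter fit.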

[2] = system: Miapaca-2 cells; test: MiaPaca-2 Cell Proliferation Assay (1); assay type: cell-based; conditions: Homo sapiens, MIA PaCa-2, single agent, read-out: MiaPaca2 (1) IC50
In short: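 Resazurin was added after compound exposure and incubated 5-6 h, then fluorescence read at 540 nm excitation and 600 nm emission to give IC50.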

[3] = target: A-Raf kinase (SEQ. ID No: 1) (Homo sapiens (Human), UniProt P10398, Y301D/Y302D); test: Biochemical Assay for A-Raf (1); conditions: Table J, assay version (1); read-out: ARAF (1) IC50
A-Raf kinase (SEQ. ID No: 1), sequence (P10398 other isoform, or with tags, fused parts or gaps Y301D (already in the parent)/Y302D (already in the parent)): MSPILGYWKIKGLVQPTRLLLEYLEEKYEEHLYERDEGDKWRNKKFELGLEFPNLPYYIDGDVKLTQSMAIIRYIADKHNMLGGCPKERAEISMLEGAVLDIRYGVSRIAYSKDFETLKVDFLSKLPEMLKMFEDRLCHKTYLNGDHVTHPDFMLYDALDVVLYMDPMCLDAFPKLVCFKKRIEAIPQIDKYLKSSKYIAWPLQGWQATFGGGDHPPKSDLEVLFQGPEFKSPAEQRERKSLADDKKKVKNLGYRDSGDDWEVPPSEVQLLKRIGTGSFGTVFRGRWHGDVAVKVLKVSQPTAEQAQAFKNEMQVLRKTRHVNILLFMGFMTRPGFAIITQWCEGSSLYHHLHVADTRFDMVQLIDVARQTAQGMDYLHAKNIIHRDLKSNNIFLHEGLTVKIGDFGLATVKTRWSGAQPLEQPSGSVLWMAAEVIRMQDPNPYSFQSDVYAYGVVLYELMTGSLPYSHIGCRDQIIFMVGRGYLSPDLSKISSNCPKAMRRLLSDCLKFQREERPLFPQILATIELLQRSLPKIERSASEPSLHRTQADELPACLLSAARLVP
In short: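 A-Raf Y301D/Y302D at 5.55 nM phosphorylates 30.1 nM MEK with 1 mM ATP in pH 7.5 Tris buffer, 1% DMSO. Activity was read continuously as NADH oxidation at 340 nm in a pyruvate kinase/lactate dehydrogenase coupled system for 6 h at 30 °C. Rates from 4–5 h were converted to percent inhibition, and IC50 came from a four-parameter fit.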

[4] = system: H2405 cells; test: H2405 Cell Proliferation Assay (1); assay type: cell-based; conditions: Homo sapiens, NCI-H2405
Experimental: H2405 Cell Proliferation Assay (1)
H2405 cells (catalog #CRL-5994) are obtained from the American Type Culture Collect (ATTC, Manassas, VA). Briefly, cells were grown in RPMI 1640 supplemented with 5% characterized fetal bovine serum (Invitrogen, Carlsbad, CA) and 1% Penicillin/Streptomycin/L-Glutamine at 37° C., 5% CO2, and 95% humidity. Cells are expanded until reaching 70-95% confluency at which point they are sub-cultured or harvested for assay use. A serial dilution of test compound is dispensed into a 96-well black clear bottom plate in triplicate. Three thousand cells are added per well in 200 μL complete growth medium in the 96-well plate. Plates are incubated for 67-72 h at 37° C., 5% CO2, and 95% humidity. At the end of the incubation, 40 μL of a 440 μM solution of resazurin (Sigma, St. Louis, MO) in PBS is added to each well of the plate and plates are incubated for an additional 5-6 h at 37° C., 5% CO2, and 95% humidity. Plates are read on a Synergy2 or equivalent reader (Biotek, Winooski VT) using an excitation of 540 nm and an emission of 600 nm. Data is analyzed using Prism software (GraphPad, San Diego, CA) to calculate IC50 values.

B-Raf (V600E) (SEQ. ID NO: 4) kinase, sequence (P15056 416-766 V600E): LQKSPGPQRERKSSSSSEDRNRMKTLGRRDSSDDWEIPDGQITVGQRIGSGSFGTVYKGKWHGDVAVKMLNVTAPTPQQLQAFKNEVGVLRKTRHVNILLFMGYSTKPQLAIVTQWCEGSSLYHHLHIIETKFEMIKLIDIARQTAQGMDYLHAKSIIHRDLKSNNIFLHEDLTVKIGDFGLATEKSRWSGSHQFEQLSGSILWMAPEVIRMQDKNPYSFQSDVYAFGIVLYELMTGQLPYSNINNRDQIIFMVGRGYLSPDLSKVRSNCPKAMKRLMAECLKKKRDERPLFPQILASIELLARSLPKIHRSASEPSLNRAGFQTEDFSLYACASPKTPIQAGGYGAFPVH

Row | IC50 [1] [nM] | IC50 [2] [nM] | IC50 [3] [nM] | IC50 [4] [nM] | Compound
1 | ≤ 100 | 1000 to 10000 | 1000 to 10000 | – | Cc1ccc(NC(=O)c2ccnc(C(F)(F)F)c2)cc1-c1cc(-c2ccnc(NC(=O)C3CC3)c2)n(C)c(=O)c1 [Example 13]
2 | ≤ 100 | 1000 to 10000 | 1000 to 10000 | – | Cc1ccc(NC(=O)c2ccnc(C(F)(F)F)c2)cc1-c1ccnc(-c2ccnc(NC(=O)CN(C)C)c2)c1 [Example 17]
3 | ≤ 100 | – | 100 to 500 | ≤ 100 | Cc1ccc(NC(=O)c2cc(CN(C)C)cc(C(F)(F)F)c2)cc1-c1cncc(-c2ccnc(NC(=O)C3CC3)c2)n1 [Example 185]
4 | ≤ 100 | 1000 to 10000 | 500 to 1000 | – | COC(C)(C)c1cc(C(=O)Nc2ccc(C)c(-c3ccnc(-c4ccnc(NC(=O)C5CC5)c4)n3)c2)ccn1 [Example 190]
5 | ≤ 100 | 1000 to 10000 | 1000 to 10000 | – | Cc1ccc(NC(=O)c2ccnc(C(C)(C)C#N)c2)cc1-c1cccc(-c2cc(NC(=O)C3(C)CC3)ncn2)c1 [Example 197]
6 | ≤ 100 | – | 1000 to 10000 | 100 to 500 | CNC(=O)c1cc(-c2cccc(-c3cc(NC(=O)c4ccnc(C(C)(C)C#N)c4)cnc3C)c2)cnn1 [Example 201]
7 | ≤ 100 | – | 1000 to 10000 | – | CNC(=O)c1cc(-c2cc(-c3cc(NC(=O)c4ccnc(C(C)(C)C#N)c4)ccc3F)ccn2)ccn1 [Example 205]
8 | ≤ 100 | – | 1000 to 10000 | 1000 to 10000 | Cc1ncc(NC(=O)c2ccnc(C(C)(C)C#N)c2)cc1-c1cccc(-c2cc(N)ncn2)c1 [Example 207]
9 | ≤ 100 | 1000 to 10000 | 1000 to 10000 | – | Cc1ccc(NC(=O)c2ccnc(C(C)(C)C#N)c2)cc1-c1cc(-c2cc(NC(=O)C3CC3)ncn2)cc(C2CC2)c1 [Example 216]
10 | ≤ 100 | – | 1000 to 10000 | 100 to 500 | CNC(=O)c1cc(-c2ccnc(-c3cc(NC(=O)c4ccnc(C(C)(C)F)c4)ccc3C)n2)ccn1 [Example 246]
11 | ≤ 100 | 1000 to 10000 | 1000 to 10000 | – | Cc1cc(F)c(NC(=O)c2cnnc(C3CC3)c2)cc1-c1nccc(-c2ccnc(NC(=O)C3CC3)c2)n1 [Example 252]
12 | ≤ 100 | – | 1000 to 10000 | 100 to 500 | Cc1ccc(NC(=O)c2ccnc(C3CC3)c2)cc1-c1cccc(-c2cc(NC(=O)C3CC3)ncn2)c1 [Example 255]
13 | ≤ 100 | – | 1000 to 10000 | 100 to 500 | CCNC(=O)c1cc(-c2cc(-c3cc(NC(=O)c4ccnc(C(C)(C)C#N)c4)ccc3C)ccn2)ccn1 [Example 266]

The next lines start with the molecule.

Row | Compound | IC50 [1] [nM] | IC50 [2] [nM] | IC50 [3] [nM] | IC50 [4] [nM]
14 | CC(=O)Nc1cc(-c2cc(-c3cc(NC(=O)c4ccnc(C(F)(F)F)c4)ccc3C)cc(C3CC3)n2)ccn1 [Example 14] | ≤ 100 | 1000 to 10000 | 1000 to 10000 | –
15 | Cc1ccc(NC(=O)c2ccnc(C(F)(F)F)c2)cc1-c1ccnc(-c2ccnc3c2CC(=O)N3)c1 [Example 18] | ≤ 100 | 1000 to 10000 | 1000 to 10000 | –
16 | Cc1cc(-c2cc(NC(=O)c3ccnc(C(F)(F)F)c3)ccc2C)cc(-c2ccnc3c2CC(=O)N3)n1 [Example 20] | ≤ 100 | 1000 to 10000 | 1000 to 10000 | –
17 | CNC(=O)c1cc(-c2cccc(-c3cc(NC(=O)c4ccnc(C(C)(C)C#N)c4)ccc3C)c2)cnn1 [Example 191] | ≤ 100 | – | 1000 to 10000 | ≤ 100
18 | CNC(=O)c1cc(-c2nccc(-c3cc(NC(=O)c4ccnc(C(C)(C)C#N)c4)cnc3C)n2)ccn1 [Example 194] | ≤ 100 | 1000 to 10000 | 1000 to 10000 | –
19 | CNC(=O)c1cc(-c2nc(-c3cc(NC(=O)c4ccnc(C(C)(C)C#N)c4)ccc3C)cc(C3CC3)n2)ccn1 [Example 196] | ≤ 100 | – | 1000 to 10000 | 100 to 500
20 | CNC(=O)c1cc(-c2ccnc(-c3cc(NC(=O)c4ccnc(C(C)(C)C#N)c4)cnc3C)n2)ccn1 [Example 199] | ≤ 100 | – | 1000 to 10000 | 100 to 500
21 | Cc1ccc(NC(=O)c2ccnc(C(C)(C)C#N)c2)cc1-c1cccc(-c2cc(NC(=O)C3(F)CC3)ncn2)c1 [Example 200] | ≤ 100 | 1000 to 10000 | 1000 to 10000 | –
22 | Cc1ccc(NC(=O)c2ccnc(C3(C#N)CC3)c2)cc1-c1cccc(-c2cc(NC(=O)C3CC3)ncn2)c1 [Example 203] | ≤ 100 | 1000 to 10000 | 1000 to 10000 | –
23 | Cc1ncc(NC(=O)c2ccnc(C(C)(C)C#N)c2)cc1-c1cccc(-c2cc(NC(=O)C(C)(C)C)ncn2)c1 [Example 213] | ≤ 100 | 1000 to 10000 | 1000 to 10000 | –
24 | CNC(=O)c1cc(-c2cc(-c3cc(NC(=O)c4cnnc(C5CC5)c4)ccc3C)ccn2)ccn1 [Example 215] | ≤ 100 | 1000 to 10000 | 1000 to 10000 | –
25 | Cc1ncc(NC(=O)c2ccnc(C(C)(C)C#N)c2)cc1-c1ccnc(-c2ccnc(NC(=O)C(C)(C)C#N)c2)c1 [Example 219] | ≤ 100 | 1000 to 10000 | 1000 to 10000 | –
26 | Cc1ccc(NC(=O)c2ccnc(C3(C#N)CC3)c2)cc1-c1cccc(-c2cc(NC(=O)C3CC3)ncn2)n1 [Example 220] | ≤ 100 | 1000 to 10000 | 1000 to 10000 | –
27 | Cc1ccc(NC(=O)c2ccnc(C(C)(C)C#N)c2)cc1-c1cccc(-c2ccnc(NC(=O)C3CC3)c2)c1 [Example 223] | ≤ 100 | – | 500 to 1000 | ≤ 100
28 | Cc1ncc(NC(=O)c2ccnc(C(C)(C)C#N)c2)cc1-c1cccc(-c2cc(NC(=O)C3CC3)ncn2)n1 [Example 226] | 100 to 500 | 1000 to 10000 | 1000 to 10000 | –
29 | Cc1ccc(NC(=O)c2ccnc(C(C)(C)C#N)c2)cc1-c1cccc(-c2cc(NC(=O)C3CC3)ncn2)n1 [Example 233] | ≤ 100 | 1000 to 10000 | 1000 to 10000 | –
30 | COC(C)(C)C(=O)Nc1cc(-c2cc(-c3cc(NC(=O)c4ccnc(C(C)(C)C#N)c4)ccc3C)ccn2)ccn1 [Example 237] | ≤ 100 | – | 1000 to 10000 | 500 to 1000
31 | CC(C)(C#N)c1cc(C(=O)Nc2ccc(C#N)c(-c3cccc(-c4cc(NC(=O)C5CC5)ncn4)c3)c2)ccn1 [Example 240] | ≤ 100 | – | 1000 to 10000 | 100 to 500
32 | CNC(=O)c1cc(-c2ccnc(-c3cc(NC(=O)c4ccnc(C(C)(C)C#N)c4)c(F)cc3C)n2)ccn1 [Example 242] | ≤ 100 | – | 1000 to 10000 | 100 to 500
33 | CNC(=O)c1cc(-c2cc(-c3cc(NC(=O)c4ccnc(C(C)(C)C#N)c4)ccc3C#N)ccn2)ccn1 [Example 247] | ≤ 100 | – | 1000 to 10000 | 100 to 500
34 | Cc1ccc(NC(=O)c2ccnc(C(C)(C)C#N)c2)cc1-c1ccnc(-c2ccnc(NC(=O)C3CC3)c2)n1 [Example 257] | ≤ 100 | 1000 to 10000 | 500 to 1000 | –
35 | CNC(=O)c1cc(-c2cc(-c3cc(NC(=O)c4ccnc(C(C)(C)C#N)c4)ccc3F)cc(C)n2)ccn1 [Example 259] | ≤ 100 | – | 1000 to 10000 | 100 to 500
36 | Cc1cc(F)c(NC(=O)c2ccnc(C3(C#N)CC3)c2)cc1-c1ccnc(-c2ccnc(NC(=O)C3CC3)c2)n1 [Example 262] | ≤ 100 | 1000 to 10000 | 500 to 1000 | –
37 | Cc1cc(F)c(NC(=O)c2cnnc(C3CC3)c2)cc1-c1ccnc(-c2ccnc(NC(=O)C3CC3)c2)n1 [Example 263] | ≤ 100 | 1000 to 10000 | 1000 to 10000 | –
